# Measurements published in patent US20250366467A1, “METHODS FOR FLUID RESUSCITATION OF AN ORGAN DONOR” (VIRGINIA COMMONWEALTH UNIVERSITY, priority 2022, published 2025).
# System: brain dead adult beagle dogs
# Details: dog, in vivo
# Method: Care and Use Committee. Adult beagle dogs (8-10 kg) of either sex (n=11) were initially anesthetized with propofol (10 mg/kg, intravenous or IV). After intubation, anesthesia was maintained with isoflurane at 1-2% on mechanical ventilation with FiO2 at 30%, ventilation rate of 12, which was adjusted as necessary to achieve a PaCO2 goal of 38-42 mmHg. A circulating water-warming pad was used to maintain normothermia throughout the experiment. The femoral artery was cannulated for arterial blood sampling and for measurement of arterial blood pressure and heart rate. The external jugular vein was also accessed and cannulated for administration of fluids and necessary medications.
# Explosive brain death was induced in anesthetized adult Beagle dogs by inflating a balloon catheter (16 Fr. Foley) that was placed under the skull from a trephination burr hole. The balloon was inflated from 0-8 ml volume over about 5 minutes. which ultimately causes the brain stem to herniate through the foramen at the base of the skull. This causes rapid brain death that is characterized by the occurrence of a Cushing reflex, a negative apnea reflex, and fixed and dilated pupils. This methodology has previously been described by Mangino, et al.
# The animals were assigned to either the control group (n=5) or the PEG-20k group (n=6) within the first hour. Both groups were treated in a standard fashion. […]
substance,measurement,value
polyethylene glycol-20k [PEG-20k],Hb level trend,trended lower
